# Laboratory results reported in ChEMBL document CHEMBL1136456, “Synthesis and biological evaluation of benzazepine oxazolidinone antibacterials” (2003).
# Experiments:
# Type in all cases: functional
# Enterococcus faecalis = assay: Antibacterial activity against Enterococcus faecalis UC9217 (E. f)
# Streptococcus pneumoniae = assay: Antibacterial activity against Streptococcus pneumoniae UC9912 (S.p)
# [1] = tested on: Staphylococcus epidermidis; assay: Antibacterial activity against Methicillin-resistant Staphylococcus epidermidis UC12084 (S. e)
# Staphylococcus aureus [2] = assay: Antibacterial activity against Methicillin-suceptible Staphylococcus aureus UC9218
# Haemophilus influenzae = assay: Antibacterial activity against Haemophilus influenzae UC30063 (Haemophilus influenzae)
# Staphylococcus aureus [3] = assay: Antibacterial activity against Methicillin-resistant Staphylococcus aureus UC6685 (S. a.)
# Mus musculus = assay: Dose (administered orally) required to protect the Staphylococcus aureus infected mice was determined; settings: po
# Moraxella catarrhalis = assay: Antibacterial activity against Moraxella catarrhalis UC30610 (M. cat)
Structure (SMILES),MIC (Enterococcus faecalis) [µg/mL],MIC (Streptococcus pneumoniae) [µg/mL],MIC [1] [µg/mL],MIC (Staphylococcus aureus [2]) [µg/mL],MIC (Haemophilus influenzae) [µg/mL],MIC (Staphylococcus aureus [3]) [µg/mL],ED50 (Mus musculus) [mg/kg/day],MIC (Moraxella catarrhalis) [µg/mL]
CC(=O)NC[C@H]1CN(c2ccc3c(c2)CCCN(C(C)=O)C3)C(=O)O1,8,2,4,8,> 64,–,–,–
CC(=O)NC[C@H]1CN(c2ccc3c(c2)CCCN(C=O)C3)C(=O)O1,2,1,2,1,32,1,8.1,4
CC(=O)NC[C@H]1CN(c2ccc3c(c2)CCN(S(C)(=O)=O)CC3)C(=O)O1,32,8,16,16,32,–,–,> 64
CC(=O)NC[C@H]1CN(c2ccc3c(c2)CCN(C(C)=O)CC3)C(=O)O1,2,1,1,4,64,–,–,–
CC(=O)NC[C@H]1CN(c2ccc3c(c2)CCCCN3)C(=O)O1,64,16,16,64,> 64,32,–,> 64
CC(=O)NC[C@H]1CN(c2ccc3c(c2)CCCN(C(=O)NC(C)C)C3)C(=O)O1,32,8,32,64,> 64,–,–,–
CC(=O)NC[C@H]1CN(c2ccc3c(c2)CCNCC3)C(=O)O1,32,8,8,32,> 64,64,–,> 64
CC(=O)NC[C@H]1CN(c2ccc3c(c2)CCCCN3C(=O)CO)C(=O)O1,64,8,8,64,> 64,32,–,> 64
CC(=O)NC[C@H]1CN(c2ccc3c(c2)CCCCN3C(=O)OCc2ccccc2)C(=O)O1,> 64,> 64,> 64,> 64,> 64,–,–,> 64
CC(=O)NC[C@H]1CN(c2ccc3c(c2)CCCN(C(=O)OCc2ccccc2)C3)C(=O)O1,32,8,16,16,> 64,–,–,–
COC(=O)N1CCCc2cc(N3C[C@H](CNC(C)=O)OC3=O)ccc2C1,4,2,2,8,> 64,–,–,–
CC(=O)NC[C@H]1CN(c2ccc3c(c2)CCCN(C(=O)CO)C3)C(=O)O1,4,1,1,4,64,4,–,16
CC(=O)NC[C@H]1CN(c2ccc3c(c2)CCCCN3C=O)C(=O)O1,2,< 0.05,< 0.05,2,16,2,–,4
CC(=O)NC[C@H]1CN(c2ccc3c(c2)CCN(C(=O)Cc2ccccc2)CC3)C(=O)O1,2,1,1,4,> 64,–,–,–
CC(=O)NC[C@H]1CN(c2ccc3c(c2)NCCCC3)C(=O)O1,32,8,8,32,> 64,16,–,> 64
CC(=O)NC[C@H]1CN(c2ccc3c(c2)CCN(C(=O)CO)CC3)C(=O)O1,4,< 0.05,1,2,32,2,8.5,8
CC(=O)NC[C@H]1CN(c2ccc3c(c2)CCN(C(=O)OCc2ccccc2)CC3)C(=O)O1,4,< 0.05,1,4,> 64,2,–,16
CC(=O)NC[C@H]1CN(c2ccc3c(c2)CCN(C(=O)c2ccccc2)CC3)C(=O)O1,2,1,1,8,> 64,–,–,–
COC(=O)N1CCc2ccc(N3C[C@H](CNC(C)=O)OC3=O)cc2CC1,2,1,1,4,> 64,–,–,–
CC(=O)NC[C@H]1CN(c2ccc3c(c2)CCCNC3)C(=O)O1,> 64,8,32,> 64,> 64,–,–,> 64
CC(=O)NC[C@H]1CN(c2ccc3c(c2)N(C=O)CCCC3)C(=O)O1,> 64,> 64,> 64,> 64,> 64,–,–,> 64
CC(=O)NC[C@H]1CN(c2ccc3c(c2)CCCN(C(=O)Nc2ccccc2)C3)C(=O)O1,4,1,4,16,64,–,–,–
CC(=O)NC[C@H]1CN(c2ccc3c(c2)CCCN(C(=O)Cc2ccccc2)C3)C(=O)O1,16,4,8,32,> 64,–,–,–
CC(=O)NC[C@H]1CN(c2ccc3c(c2)CCN(C=O)CC3)C(=O)O1,4,< 0.05,< 0.05,4,> 64,2,–,8
CC(=O)NC[C@H]1CN(c2ccc3c(c2)CCN(C(=O)Oc2ccccc2)CC3)C(=O)O1,4,2,2,4,> 64,–,–,–
CC(=O)NC[C@H]1CN(c2ccc3c(c2)CCCN(C(=O)NCCc2ccccc2)C3)C(=O)O1,32,8,32,64,> 64,–,–,–
CC(=O)NC[C@H]1CN(c2ccc(N3CCOCC3)c(F)c2)C(=O)O1 [LINEZOLID],–,–,1,–,16,–,5.6,8
